Measured values as given in patent publication US11254986B2, “Gene signature for immune therapies in cancer” (ALMAC DIAGNOSTICS LIMITED, priority 2015, dated 2022).

Test system: HCC1937 parental and HCC1937-BR cells
Experiment: Cell viability assay (CellTitre-Glo), determination of cisplatin sensitivity
Format: cell-based
Details: HCC1937 BRCA1 mutant cell-line relative to BRCA1 corrected cell-line (HCC1937-BR); FIG. 8D
Protocol: For measurement of sensitivity to cisplatin, exponentially growing cells were seeded into 96-well plates. […] Cells were incubated in the presence of drug for 96 hours following which time the viability of the cells was assessed using the Promega CellTitre-Glo luminescent cell viability assay. The sensitivity of the cells was calculated as the percentage of vehicle (DMSO) control.

N.N.[Cl][Pt][Cl] [cisplatin]
sensitivity to cisplatin (cell viability): more sensitive
